# Experiments:
# [1] = tested on: rabbit antiserum after immunization with catalase; test: Microtiter complement-fixation test; assay type: binding; details: initial and booster sera
# Protocol: (§1) Immunization - New Zealand, white adult female rabbits were immunized by the intravenous route with a 1.5 mg/ml. stock solution of beef liver catalase for a period of 4 weeks by which time it received a total of 55 mg. of catalase. Rabbits were bled by cardiac puncture 7 and 14 days after completion of the immunization schedule. Approximately 1 month later, rabbits were injected with 5 mg. of the appropriate antigen and bled by cardiac puncture 1 week after receiving the booster injection.
# (§2) Rabbit antisera obtained after initial or booster immunization were assayed in vitro for precipitating (1) and complement fixing activities (2,3). Each antiserum (undiluted, 1/10, 1/50) was set up in gel diffusion plates (1.0% Noble Agar in physiological saline with 1.0% azide added as preservative) against both catalase and PEG-HTA-catalase solutions (concentrations ranging from 1000γ/ml. to 5γ/ml). Plates were incubated at room temperature for 48 hours and at 4° C. for 3-4 days. Complement fixing activity of the heat inactivated, sheep red blood cell absorbed antisera was determined using the Microtiter Complement-fixation test (Cooke Engineering Co., Alexandria, Virginia). Antisera were run 1:1 and 1:10 dilutions against catalse and PEG-HTA-catalase dilutions ranging from 1000γ/ml. down to 15γ/ml. Plates were read for presence or absence of hemolysis following incubation at 37° C. for 30 minutes.
# [2] = tested on: rabbit antiserum after immunization with catalase; test: Gel diffusion test for precipitating antibodies; assay type: binding; details: antiserum against native catalase, tested undiluted and 1/10
# Protocol: as §1, §2
# [3] = tested on: rats made diabetic utilizing alloxan injections; test: PEG insulin rat assay, alloxan diabetic rats; assay type: in vivo; set-up: % Drop Over Control: concentration or dose not given beside the values
# test rabbits = test: PEG-HTA-insulin assay, blood sugar levels in test rabbits (Glucostat method); assay type: in vivo, rabbit; details: after 3 hours, same amount of insulin injected
# Protocol: Preliminary insulin and PEG-HTA-insulin containing the same amount of insulin were injected into test rabbits and blood sugar levels measured by the "Glucostat" method (Worthington Biochemical Corporation, Freehold, N. J.).
# insulin antiserum = test: PEG-insulin immunoassay (radioimmunoassay); assay type: binding
# Protocol: PEG-HTA-Insulin was prepared in accordance with Example II and tested for antigenic activity by the method of […]
# [4] = Insulin activity (animal assay); details: in vivo
# [5] = intravenous, 8 hrs (animals fed after 5 hrs)
substance,measurement,setting,value
"Hydrogen Peroxide: Hydrogen-Peroxide Oxidoreductase (1.11.1.6; ""Catalase"")-2-PEG-4-Hydroxy-1,3,5-Triazin-6-yl Conjugate [modified catalase]",complement-fixing activity,[1],negative
same,"precipitating antibodies, gel diffusion",[2],no evidence of any cross-reactions
Hydrogen-peroxide: hydrogen-peroxide oxidoreductase [Unmodified catalase],complement-fixing activity,[1],positive
same,"precipitating antibodies, gel diffusion",[2],positive
"Insulin PEG-4-Hydroxy-1,3,5-Triazin-6-yl Conjugate [PEG HTA Insulin (pH 9.2)]",Blood Glucose Level,"[3]; intravenous, 0 hrs (initial level)",305 mg/100 ml.
same,% Drop Over Control,"[3]; intravenous, 2 hrs",76.2%
same,Blood Glucose Level,"[3]; intravenous, 2 hrs",72.5 mg/100 ml.
same,Drop Over Initial Level,"[3]; intravenous, 2 hrs",232 mg/100 ml
same,% Drop Over Control,"[3]; intravenous, 4 hrs",66.7%
same,Blood Glucose Level,"[3]; intravenous, 4 hrs",101.5 mg/100 ml.
same,Drop Over Initial Level,"[3]; intravenous, 4 hrs",203.5 mg/100 ml
same,% Drop Over Control,[3]; [5],24.6%
same,Blood Glucose Level,[3]; [5],230 mg/100 ml.
same,Drop Over Initial Level,[3]; [5],75 mg/100 ml
insulin [Unmodified Insulin],Blood Glucose Level,test rabbits,20 % of normal
same,Insulin Antibodies Activity (radioimmunoassay),insulin antiserum,127 μ units/ml.
same,Insulin Activity (animal assay),[4],137 μ units/ml.
same,Blood Glucose Level,"[3]; intramuscularly, 0 hrs (initial level)",410 mg/100 ml.
same,% Drop Over Control,"[3]; intramuscularly, 1 hr",32.9%
same,Blood Glucose Level,"[3]; intramuscularly, 1 hr",295 mg/100 ml.
same,Drop Over Initial Level,"[3]; intramuscularly, 1 hr",135 mg/100 ml
same,% Drop Over Control,"[3]; intramuscularly, 2 hrs",34.1%
same,Blood Glucose Level,"[3]; intramuscularly, 2 hrs",270 mg/100 ml.
same,Drop Over Initial Level,"[3]; intramuscularly, 2 hrs",140 mg/100 ml
same,% Drop Over Control,"[3]; intramuscularly, 4 hrs",29.2%
same,Blood Glucose Level,"[3]; intramuscularly, 4 hrs",290 mg/100 ml.
same,Drop Over Initial Level,"[3]; intramuscularly, 4 hrs",120 mg/100 ml
same,% Drop Over Control,"[3]; intramuscularly, 6 hrs",02.4%
same,Blood Glucose Level,"[3]; intramuscularly, 6 hrs",400 mg/100 ml.
same,Drop Over Initial Level,"[3]; intramuscularly, 6 hrs",10 mg/100 ml
